Assay results reported in patent publication US8653112B2, “Substituted pyrazoles as estrogen receptor ligands” (Karo Bio AB, priority 2009, dated 2014).

Molecular target: T1, human ERβ (ERβ-LBD) (Homo sapiens, UniProt Q92731)
T1 construct: ERβ (ERβ-LBD, pET-N-AT #1, aa 255-530); biotinylation tag (in vivo biotinylated, pBirA co-expression); made in house; host or cells: E. coli BL21 (DE3) pBirA
Assay: Binding assay 1: estrogen receptor binding assay (SPA, 3H-E2 displacement), ERβ
Details: displacement of 3H-E2, read-out: binding affinity to the estrogen receptor β-subtype, IC50
Procedure: Binding Assay 1: Estrogen Receptor Binding Assay
The estrogen receptor ligand binding assays are designed as scintillation proximity assays (SPA), employing the use of tritiated estradiol (^3H-E2) and recombinant expressed biotinylated estrogen receptor binding domains. The binding domains of human ERα (ERα-LBD, pET-N-AT #1, aa 301-595) and ERβ (ERβ-LBD, pET-N-AT #1, aa 255-530) proteins are produced in E. coli ((BL21, (DE3), pBirA)) at 22 C in 2×LB medium supplemented with 50 uM biotin. After 3 h of IPTG induction (0.55 mM), cells are harvested by centrifugation at 7300×g for 15 min and cell pellets stored frozen in −20C. Extraction of ERα and ERβ are performed using 5 g of cells suspended in 50 mL of extraction buffer (50 mM Tris, pH 8.0, 100 mM KCl, 4 mM EDTA, 4 mM DDT and 0.1 mM PMSF). The cell suspension is run twice through a Microfluidizer M-110L (Microfluidics) and centrifuged at 15,000×g for 60 min. The supernatant is aliquoted and stored in −70C.
Dilute ERαLBD or ERβ-LBD extracts in assay buffer (18 mM K2HPO4, 2 mM KH2PO4, 20 mM NasMoO4, 1 mM EDTA, 1 mM TCEP) 1:676 and 1:517 for alpha and beta respectively. The diluted receptor concentrations should be 900 fmol/L. Preincubate the extracts with streptavidin coated polyvinyltoluene SPA beads (RPNQ0007, GE Healthcare) at a concentration of 0.43 mg/mL for 1 hr at room temperature.
Test compounds are evaluated over a range of concentrations from 157 μM to 37.5 pM. The test compound stock solutions should be made in 100% DMSO at 5× of the final concentration desired for testing in the assay. The amount of DMSO in the test wells of the 384 well plate will be 20%. Add 18 μl aliquots of test compounds to the assay plates followed by 35 μl of the preincubated receptor/SPA bead mix and finally add 35 μl of 3 nM ^3H-E2. Cover the plates with a plastic sealer, centrifuge for 1 minute at 1000 rpm and equilibrate over night on a shaker at room temperature. The following morning, centrifuge the plates 5 minutes at 2000 rpm and measure on a plate scintillation counter e.g. a PerkinElmer Microbeta 1450 Trilux.
For compounds able to displace 3[H]-E2 from the receptor an IC50-value (the concentration required to inhibit 50% of the binding of 3[H]-E2) is determined by a non-linear four parameter logistic model; b=((bmax−bmin)/(1+(1/IC50)S))+bmin I is added concentration of binding inhibitor, IC50 is the concentration of inhibitor at half maximal binding and S is a slope factor. The Microbeta-instrument generates the mean cpm (counts per minute) value/minute and corrects for individual variations between the detectors thus generating corrected cpm values.

T1 sequence (Q92731 255-530): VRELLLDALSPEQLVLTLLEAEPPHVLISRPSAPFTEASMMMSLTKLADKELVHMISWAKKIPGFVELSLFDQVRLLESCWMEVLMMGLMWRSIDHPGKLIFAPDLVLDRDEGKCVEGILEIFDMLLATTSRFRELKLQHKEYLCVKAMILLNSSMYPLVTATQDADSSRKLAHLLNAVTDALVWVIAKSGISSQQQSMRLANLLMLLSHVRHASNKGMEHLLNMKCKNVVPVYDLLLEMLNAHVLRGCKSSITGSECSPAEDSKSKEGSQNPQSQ

IC50, 0.001 to 0.1 µM:
Cc1noc(C)c1-c1c(C=NO)c(C(C)C)nn1-c1ccc(O)cc1 (single isomer, unassigned) [Example 18, 5-(3,5-dimethylisoxazol-4-yl)-1-(4-hydroxyphenyl)-3-isopropyl-1H-pyrazole-4-carbaldehyde oxime]
Cc1noc(C)c1-c1c(-c2ccc(O)cc2)nn(C)c1C=NO (single isomer, unassigned) [Example 12, 4-(3,5-dimethylisoxazol-4-yl)-3-(4-hydroxyphenyl)-1-methyl-1H-pyrazole-5-carbaldehyde oxime]
Cc1noc(C)c1-c1c(-c2ccc(O)cc2F)nn(C)c1C=NO (single isomer, unassigned) [Example 48, 4-(3,5-dimethylisoxazol-4-yl)-3-(2-fluoro-4-hydroxyphenyl)-1-methyl-1H-pyrazole-5-carbaldehyde oxime]
Cn1nc(-c2ccc(O)cc2)c(-c2c(Cl)cccc2Cl)c1C=NO (single isomer, unassigned) [Example 45, 4-(2,6-dichlorophenyl)-3-(4-hydroxyphenyl)-1-methyl-1H-pyrazole-5-carbaldehyde oxime]
CCc1nn(-c2ccc(O)cc2F)c(-c2c(C)noc2C)c1C=NO (single isomer, unassigned) [Example 27, 5-(3,5-dimethylisoxazol-4-yl)-3-ethyl-1-(2-fluoro-4-hydroxyphenyl)-1H-pyrazole-4-carbaldehyde oxime]
Cc1cc(O)ccc1-c1nn(C)c(/C=N/O)c1-c1c(C)noc1C (single isomer, unassigned) [Example 63, (E)-4-(3,5-dimethylisoxazol-4-yl)-3-(4-hydroxy-2-methylphenyl)-1-methyl-1H-pyrazole-5-carbaldehyde oxime]
Cn1nc(-c2ccc(O)cc2)c(-c2c(F)cccc2F)c1C=NO (single isomer, unassigned) [Example 44, 4-(2,6-difluorophenyl)-3-(4-hydroxyphenyl)-1-methyl-1H-pyrazole-5-carbaldehyde oxime]
